# Measured values from PubChem BioAssay AID179 (DTP/NCI, 2004).
# Where “and” joins values, the source holds several entries; their conditions need not be identical. Identical values can stand only once. Calls of active or inactive are those of the source.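 Rule for the calls: active = compounds giving half or more protection of infected cells from virus-caused growth loss, again on retest; inactive = the rest.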
# Test system: CEM cells HIV-1 protection, formazan growth assay
# Test: NCI AIDS Antiviral Assay
# Settings: for IC50: measured here: growth of uninfected CEM cells
# In short: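 Soluble formazan readout of cell growth; CEM cells ± HIV-1; 5 drug concs. ≥50% protection → retest; ≥50% again = moderately active; reproducible 100% = confirmed active.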
Structure (SMILES),EC50,IC50,outcome
CCOC(=O)c1nc2cc(C(F)(F)F)ccc2nc1Oc1ccc(C(=O)OC)cc1,> 200 µM,95.5 µM,
O=C(O)CCN(CCC(=O)O)CCN(CCC(=O)O)CCC(=O)O,> 589 µM,> 589 µM,
COCC(=O)OC1CCn2c1nc1c2C(=O)C(C)=C(NC(C)=O)C1=N (centres undefined),> 200 µM,2.88 µM,
CCCCCOP(=O)(OCCCCC)C(NC(C)=O)(C(=O)OCC)C(F)(F)F (centres undefined),> 200 µM,110 µM,
CSCCC(NC(=O)c1ccccc1C(=O)O)C(=O)O (centres undefined),> 200 µM,> 200 µM,
CCOc1ccc(N=NC2C(=O)N(C(=O)CC(=O)Nc3ccc(Cl)cc3)N=C2C)cc1 (centres undefined),> 200 µM,> 200 µM,
Cc1ccccc1NC(=S)Nc1ccccn1,> 200 µM,95.5 µM,
CCCOC(=O)NC(C)C(=O)NC(CCC(=O)NC(CCCC(N)C(=O)O)C(=O)NC(C)C(=O)O)C(=O)O (centres undefined),> 50.1 µM,> 50.1 µM,
COC(=O)CSSCc1ccccc1,> 200 µM,5.25 µM,
COc1ccc(C2SC(N)=Nc3c2c(C)nn3C(=O)c2ccccc2O)cc1OC (centres undefined),> 20 µM,0.617 µM,
O=C(Nc1ccccc1)N(CCN(Cc1ccccc1)C(=O)Nc1ccccc1)CCN(Nc1ccccc1)C(=O)Nc1ccccc1,> 200 µM,> 200 µM,
CC(C)(C)c1cc(C(c2ccccc2)c2ccccc2)cc(C(C)(C)C)c1O,> 60.3 µM,33.1 µM,
CCOP(=Nc1ccc(N(C)C)cc1)(OCC)OCC,> 200 µM,> 200 µM,
CCN(CC)CCOC(=O)c1c(C)oc2cc3c(C(=O)OCCN(CC)CC)c(C)oc3cc12,> 200 µM,6.03 µM,
Cc1ccc(-n2c(O)c3c(N)n[nH]c3c(C#N)c2=O)cc1,155 µM,> 200 µM,
O=C(NC1CCCCCC1)C1C(=O)N(C2CCCCCC2)C(=O)/C1=N\O (centres undefined),,,inactive
O=C1/C(=C/c2ccccc2)Oc2cc(O)ccc21,> 200 µM,110 µM,
C/C(O)=C(\C=N\C(=S)Nc1ccccc1)C(=O)Nc1ccc(Cl)cc1,,,inactive
COCCN(CCNC(=O)c1cccc2c(N)c3cccc(C)c3nc12)CCOC,> 2 µM,0.269 µM,
O=C(NCCO)c1ccc[c]([Sb](=[O])([OH])[OH])c1,23.4 µM,398 µM,
CCc1cccc(CC)c1N=C(NC(=O)c1ccc(Br)cc1)SC,> 200 µM,> 200 µM,
COC1OC2COc3ccccc3OC2C2N=C(N)SC12 (centres undefined),295 µM,363 µM,
CO/N=C\c1c2c(O)c3c(O)c(C)c4c(c3c1O)C(=O)C(C)(O/C=C\C(OC)C(C)C(OC(C)=O)C(C)C(O)C(C)C(O)C(C)/C=C\C=C(\C)C(=O)N2)O4 (centres undefined),> 151 µM,15.8 µM,

Structure (SMILES),EC50,IC50,outcome
CCN(CC)c1nc(=O)c(C(=O)C(C)(C)C)c(C(C)(C)C)o1,> 200 µM,> 200 µM,
Cc1ccc(NC(=O)/C(=N/NC(=O)CC#N)C2C(=O)N(c3ccccc3)N=C2N)cc1C (centres undefined),> 219 µM,37.2 µM,
COc1ccc(C2CC(c3ccc4ccccc4c3O)=NN2C(C)=O)cc1OC (centres undefined),> 50.1 µM,> 50.1 µM,
Cc1cc(=O)cc2sc3c(C)cccc3nc1-2,> 30.2 µM,> 30.2 µM,
CC(=O)C(=Cc1ccc(F)cc1)C(C)=O,> 871 µM,38 µM,
O=C1C(=O)N(c2cccc(C(F)(F)F)c2)C(=O)C(=O)C1c1nc2ccccc2s1,> 44.7 µM,> 44.7 µM,
COC(=O)C12CN(C)CC(C(=O)OC)(C1=O)C(c1ccccc1)OC2c1ccccc1 (centres undefined),,,inactive
O=Cc1cc(O)ccc1Br,> 200 µM,2.95 µM,
S=c1sc2c(s1)SCCS2,> 200 µM,155 µM,
O=C(Nc1nc(-c2ccccc2)cs1)OCC(Cl)(Cl)Cl,> 200 µM,4.47 µM,
OCc1ccc2c(c1)CC1(Cc3ccccc3C1)C2,> 200 µM,20 µM,
CC1(c2cc(Cl)c(Cl)cc2Cl)NC(=O)NC1=O (centres undefined),,,inactive
CCCCCC(=O)Nc1n[nH]nc1C#N,> 200 µM,> 200 µM,
COc1ccc2c3c(c(C(=O)c4ccccc4)oc13)CCC2,,,inactive
O=c1[nH]c(=O)n(C2CC(O)C(CO)O2)cc1NN=NCc1ccccc1 (centres undefined),> 200 µM,> 200 µM,
CC(C)N=C(NC#N)NS(=O)(=O)c1cnccc1NC1CCCCCCC1,> 200 µM,> 200 µM,
O=C(O)c1ccccc1CC(Cc1ccccc1)C(=O)O (centres undefined),> 200 µM,126 µM,
N#CC1(c2ccccc2)CCN(Cc2ccccc2)CC1,> 115 µM,60.3 µM,
CC12CCC(C(=Nc3ccc([N+](=O)[O-])cc3)C1=O)C2(C)C (centres undefined),> 200 µM,35.5 µM,
S=C1N(c2ccc(Br)cc2)C2=Nc3ccccc3SC(=C2N=Nc2ccccc2Cl)N1c1ccc(Cl)cc1,> 34.7 µM,6.76 µM,
COc1cc(C=O)c(-c2cc3c(cc2C=O)OCO3)c(OC)c1OC,> 145 µM,51.3 µM,
CC(C)CCCC(C)[C@H]1CCC2[C@H]3C(CC[C@@]21C)[C@@]1(C)CCC=C[C@]12C[C@@H]2[C@@H]3O (some centres undefined),,,inactive
COc1cc(-c2cc(=O)c3c(O)c(OC)c(OC)cc3o2)ccc1O,> 11 µM,> 11 µM,

Structure (SMILES),EC50,IC50,outcome
Cc1nnc(N=Nc2c(O)[nH]c3c(Cl)cc(Cl)cc23)n1N,> 16.6 µM,> 16.6 µM,
O=C1CCC2(c3ccc(F)cc3)Nc3cc([N+](=O)[O-])ccc3N12 (centres undefined),> 16.6 µM,> 16.6 µM,
Nc1nc(F)nc2c1ncn2CC(O)CO (centres undefined),> 1100 µM,1.78 µM,
CC(=O)NNc1nc(C)c(C(/C=C/c2ccc([N+](=O)[O-])cc2)=N/N)s1,> 69.2 µM,> 69.2 µM,
Cc1cccc2c1c(=O)c1c(O)cc3c(c1n2C)C=CC(C)(C)O3,32.4 µM,> 200 µM,
CCOC(=O)C1=CC(C)(C(=O)OCC)Nc2c(nc(N)[nH]c2=O)N1 (centres undefined),138 µM,> 200 µM,
Cn1c2ccccc2c2nnc(N/N=C/c3ccncc3)nc21,> 200 µM,> 200 µM,
CC(=O)Nc1cc2cc(NS(=O)(=O)c3ccc(Cl)c(Cl)c3)ccc2oc1=O,> 47.9 µM,> 47.9 µM,
Cc1ccc(C2=Nn3c(nc4sc5c(c4c3=O)CCCC5)SC2)cc1,> 200 µM,> 200 µM,
NC(=O)c1ncn(C2C=CC(CP(=O)(O)O)C2)c1N (centres undefined),> 200 µM,> 200 µM,
COc1ccc(/C=N\N2CC(=O)N3C4C=CC(CC4)N3C2=O)cc1 (centres undefined),> 200 µM,> 200 µM,
CC(C)(C)C(=O)C(C(=O)C(C)(C)C)C(=O)C(C)(C)C,,,inactive
CCOC(=O)c1nc2cc(N3CCOCC3)c(F)cc2[nH]c1=O,> 200 µM,141 µM,
CC1(Br)OC(=O)C(C)(Br)OC1=O (centres undefined),> 200 µM,> 200 µM,
Nn1c(Cc2ccccc2)nnc1Cc1ccccc1,> 200 µM,> 200 µM,
COc1cc(/C=C/C(=O)OC[C@H](Br)[C@H](OC(C)=O)c2ccc3c(c2)OCO3)cc(OC)c1OC,> 200 µM,47.9 µM,
O=C(N=C1OC2C(OC(=O)c3ccccc3)C(COC(=O)c3ccccc3)OC2N1C(=O)c1ccccc1)c1ccccc1 (centres undefined),> 200 µM,107 µM,
CC(C)S(=O)(=O)O,> 200 µM,> 200 µM,
O=C(/C=C/c1ccccc1)/C=N/N1C(=S)N(c2ccccc2)C(=Nc2ccccc2)C1=Nc1ccccc1,> 200 µM,> 200 µM,
Nc1snc2ncccc12,> 1200 µM,66.1 µM,
O=C(CN(c1ccc(S(=O)(=O)O)cc1)c1ccc(S(=O)(=O)O)cc1)Nn1cnc2ccc(S(=O)(=O)N(c3ccc(S(=O)(=O)O)cc3)c3ccc(S(=O)(=O)O)cc3)cc2c1=O,> 100 µM,95.5 µM,
CN(C)C(=S)SSSC(=S)N(C)C,> 20 µM,0.513 µM,
COc1cc(C(=O)/C=C/c2ccc(OCC#N)cc2)cc(OC)c1OC,> 200 µM,29.5 µM,

Structure (SMILES),EC50,IC50,outcome
CN(C)CC/C(=N\Nc1ccc(Cl)c(Cl)c1)c1ccccc1,,,inactive
CCOP(N)(=O)c1ccccc1 (centres undefined),> 200 µM,> 200 µM,
CN1C(=O)N(C)C2(O)c3ccccc3C(=O)C12O (centres undefined),> 1000 µM,> 1000 µM,
OC1(c2ccccc2)CC2CCC(C1)N2CCCC1(c2ccc(F)cc2)OCCO1 (centres undefined),> 200 µM,162 µM,
CCN1c2cc(Br)cc3[nH]c(=S)n(c23)CCC1C (centres undefined),3.72 µM,112 µM,
O=C(Cc1nc2c3c(ccc2[nH]c1=O)C(=O)c1ccccc1C3=O)C(=O)Nc1ccccc1[N+](=O)[O-],> 38.9 µM,10 µM,
NS(=O)(=O)c1ccc(CNC(=O)c2ccccc2SC(=O)CCCC[n+]2ccccc2)cc1,1.38 µM and 0.759 µM,28.2 µM and 11.7 µM,
COc1ccc(-n2c(=O)[nH]n(C(C)=O)c2=O)cc1,> 200 µM,> 200 µM,
CCOC(=O)CSc1nc2ccccc2c(=O)n1N,> 200 µM,> 200 µM,
CC(C)(C)c1cc(O)c2c(c1O)C(=O)CCC2,,,inactive
COc1ccc(C(=O)/C=C/c2ccc(OCC(=O)N3CCN(c4ccccc4)CC3)cc2)cc1OC,,,inactive
N#CCCN(C(=O)Nc1cccc(C(F)(F)F)c1)C1CCCCC1,> 200 µM,> 200 µM,
Cn1c(=O)c2c(nc(NCCCCl)n2CC(=O)NCCCCl)n(C)c1=O,> 200 µM,> 200 µM,
OC(c1cc2ccccc2o1)c1cc2ccccc2s1 (centres undefined),> 200 µM,51.3 µM,
C[C@]12CCC3[C@@H](CC[C@@H]4c5nonc5CC[C@]34C)C1CC[C@@H]2O (some centres undefined),> 214 µM,> 214 µM,
CCN(CCCCOC(=O)c1ccc(OC)c(OC)c1)C(C)Cc1ccc(OC)cc1 (centres undefined),> 200 µM,102 µM,
C/C(=C\CCC1=CC(=O)OC1)CCC1C2C(=O)CC(C)[C@@]3(C)CC[C@]1(C)[C@@]23C (some centres undefined),> 200 µM,34.7 µM,
COc1ccccc1-n1c(=O)n(C)c(=O)n1C(C)(C)C,> 200 µM,> 200 µM,
c1cc(-c2nc(-c3ccncc3)nc(-c3ccncc3)n2)ccn1,> 200 µM,> 200 µM,
NC(=O)/N=N/C(N)=O,105 µM,372 µM,
COc1cc2c3c(c1)nnn3C(=O)C(C)S2 (centres undefined),,,inactive
